{"source": "patent US10821098B2", "about": "“Treatment using dantrolene” (Lyotropic Therapeutics, Inc., priority 2001, dated 2020)", "key": {"neuronal cells": {"tested_on": "neuronal cells", "details": "cited from earlier work"}, "Malignant Hyperthermia": {"tested_on": "Malignant Hyperthermia", "details": "in vivo; cited from earlier work"}, "solubility in water": {"assay": "solubility in water", "format": "physicochemical"}, "[1]": {"tested_on": "rats subjected to 60 min of CPB", "assay": "recovery model of cardiopulmonary bypass (CPB) in the rat", "format": "in vivo", "description": "For example, three groups of rats may be subjected to 60 min of normothermic (37.5 degrees C.) nonpulsatile cardiopulmonary bypass (CPB) using a roller pump and a membrane oxygenator. Group 1 rats (n=10) receive no treatment. Group 2 rats (n=10) are pretreated with low volume dantrolene IV, 2.5 mg/kg, and Group 3 rats (n=10) are pretreated with low volume dantrolene IV, 5.0 mg/kg. A fourth group, (Group 4) serve as sham operated controls (n=10). Neurologic outcome is assessed on days 1, 3, and 12 after CPB using standardized functional testing. Neurocognitive outcome, defined as the time (or latency) to finding a submerged platform in a Morris water maze (an indicator of visual-spatial learning and memory), is evaluated daily from post-CPB days 3-12. […]"}, "patients": {"tested_on": "patients", "assay": "neurocognitive testing of patients undergoing coronary artery re-vascularization during cardiopulmonary bypass", "format": "in vivo, humans", "details": "1.0 mg/kg of 5% colloidal dantrolene; 24 hours and six weeks post-op", "description": "Prior to surgery, each patient would be given a battery of nine standard tests designed to measure cognitive function in four broad categories; attention and concentration; verbal memory; abstraction and visual orientation; and figure (numbers) memory. Patients would again administered the same tests 24 hours and six weeks post-operatively. Each assessment would be performed by the same investigator who would be blinded to the patient's study group assignment. At the time of the operation, each patient would be induced of general anesthesia according to a protocol utilizing a modified cardiac/narcotic technique. All agents would be administered on a weight based dose (mg/kg) whenever possible. Volatile anesthetic agents would be administered and regulated by the anesthesiologist via the endotracheal tube to maintain adequate blood and pulse pressures both pre and post bypass, and by the perfusionist during bypass to maintain pressures suitable for adequate tissue perfusion. A standardized protocol by which the operation is to be performed would be designed and applied to each patient enrolled in this study. […]"}, "dissolution": {"assay": "dissolution", "format": "physicochemical"}, "[2]": {"tested_on": "apoptotic nuclei in the cortex of rats given 5 mg/kg kainic acid", "details": "quotient A/B as defined in the patent", "description": "In the context of this patent, we define “therapeutic index” of a therapeutic drug (or mixture) to be the quotient A/B, where A and B are defined as follows: A is the LD50 (dose yielding 50% lethality) of the drug when given intraperitoneally to rats; and B is the dose of the drug that when given i.p. yields 50% reduction of apoptotic nuclei in the cortex of rats given 5 mg/kg kainic acid, according to the protocol described by Popescu et al. in [J. Cell."}, "rats": {"tested_on": "rats", "details": "intraperitoneally to rats; cited from earlier work"}, "[3]": {"tested_on": "apoptotic nuclei in the cortex of rats given 5 mg/kg kainic acid", "details": "cited from earlier work"}, "[4]": {"details": "doses as high as 7.5 mg/kg i.v.; cited from earlier work"}, "cell culture": {"tested_on": "cell culture", "details": "cited from earlier work"}, "[5]": {"tested_on": "rats subjected to 60 min of CPB", "details": "Ma et al.; cited from earlier work"}}, "data": [{"smiles": "N#Cc1cc2[nH]c(=O)c(=O)[nH]c2cc1[N+](=O)[O-]", "note": "[CNQX]", "values": [{"measurement": "prevention of kainic-induced neurological damage", "setting": "neuronal cells", "value": "prevented"}]}, {"smiles": "O=C1CN(/N=C/c2ncc(-c3ccc(Br)cc3)o2)C(=O)N1", "note": "[azumolene]", "values": [{"measurement": "benefit in the treatment of Malignant Hyperthermia (MH)", "setting": "Malignant Hyperthermia", "value": "limited benefit"}]}, {"smiles": "O=C1CN(/N=C/c2ccc(-c3ccc([N+](=O)[O-])cc3)o2)C(O)=N1", "note": "[dantrolene sodium]", "values": [{"measurement": "solubility", "setting": "solubility in water", "value": "< 400", "unit": "µg/mL"}]}, {"smiles": "O=C1CN(/N=C/c2ccc(-c3ccc([N+](=O)[O-])cc3)o2)C(O)=N1", "note": "[dantrolene]", "values": [{"measurement": "attenuation of CPB-induced neurologic and neurocognitive dysfunction", "setting": "[1]; 10.0 mg/kg IV 15 min prior to CPB", "value": "comparable to xenon"}, {"measurement": "neurologic and neurocognitive outcome after CPB", "setting": "[1]; pretreatment IV at both 2.5 mg/kg and 5.0 mg/kg, days 1-12", "value": "attenuates CPB associated neurologic and neurocognitive impairment"}, {"measurement": "CPB-induced neurologic and neurocognitive impairment in man", "setting": "patients", "value": "attenuates CPB-induced neurologic and neurocognitive impairment in man"}, {"measurement": "dissolution compared with the sodium salt", "setting": "dissolution; listed as Dantrolene free acid", "value": "slower and less reliable"}, {"measurement": "dissolution compared with the sodium salt", "setting": "dissolution; listed as free acid", "value": "significantly slower and more problematic than that of dantrolene sodium"}, {"measurement": "therapeutic index (LD50 / dose for 50% reduction of apoptotic nuclei)", "setting": "[2]", "value": 78}, {"measurement": "LD50 (dose yielding 50% lethality)", "setting": "rats", "value": 780, "unit": "mg/kg"}, {"measurement": "dose yielding 50% reduction of apoptotic nuclei in the cortex", "setting": "[3]; i.p., rats given 5 mg/kg kainic acid", "value": 10, "unit": "mg/kg"}, {"measurement": "kainic acid-mediated apoptosis mechanism", "setting": "[3]; rat, in vivo", "value": "inhibits"}, {"measurement": "cardiopulmonary depression", "setting": "[4]", "value": "does not cause cardiopulmonary depression"}, {"measurement": "toxicity induced by NMDA", "setting": "cell culture", "value": "inhibits"}, {"measurement": "toxicity induced by glutamate", "setting": "cell culture", "value": "inhibits"}, {"measurement": "toxicity of quisqualate (QA)", "setting": "cell culture", "value": "inhibited"}]}, {"smiles": "[Xe]", "note": "[xenon]", "values": [{"measurement": "neuroprotection in the rat CPB model", "setting": "[5]", "value": "protective"}]}]}
